Data taken from PMC10583824, “The rational design of ARUK2007145, a dual inhibitor of the α and γ isoforms of the lipid kinase phosphatidylinositol 5-phosphate 4-kinase (PI5P4K)” (RSC Medicinal Chemistry, 2023).
Converted amounts (≈) assume the structure as drawn.

How the values were obtained:
MDR1 (P-gp) = test: MDR1-MDCK bi-directional permeability and efflux; conditions: dog, MDCK-MDR1
Protocol: (§2) MDR1-MDCK Permeability (bi-directional): was performed by Cyprotex Discovery. Briefly, compounds were administered at 10 µM (1% DMSO final) to the apical or basolateral side of a confluent monolayer of MDR1-MDCK cells, then incubated at 37 °C for 60 minutes before appearance on the opposite side of the monolayer was determined LC-MS/MS. The efflux ratio (ER) is calculated from the ratio of B-A to A-B permeabilities.

MDCK-MDR1 cells = test: MDR1-MDCK bi-directional permeability and efflux; conditions: MDCK-MDR1 cells; A2B; 10 µM
Protocol: as §2

[1] = Turbidimetric aqueous solubility; type: physicochemical; conditions: pH 7.4, turbidimetric
Protocol: (§1) ADMET experimental methods […]
Turbidimetric aqueous solubility: analysis was performed by Cyprotex Discovery. Compound in DMSO at 10 mM was serially diluted to solutions of 0.1, 0.3, 1 and 3 mM in DMSO, then further diluted 1 in 100 in buffer (0.01 M PBS, pH 7.4, 1% DMSO final). 7 replicate wells of each dilution were equilibrated for 2 hours at 37 °C before absorbance is measured at 620 nm. The solubility is estimated from the concentration of test compound that produces an increase in absorbance above vehicle control (1% DMSO in buffer). […]

PI5P4Kγ+ [2] = conditions: ratio PI5P4Kα IC50 / PI5P4Kγ+ IC50, ADP-Glo
[3] = Mouse liver microsome stability; type: in vitro ADME; conditions: mouse liver microsomes half-life; read-out: MLM t½
Protocol: as §1
Mouse Microsomal stability: analysis was performed by Cyprotex Discovery. Briefly, test compounds in DMSO
protein/mL) in the presence of NADPH (1 mM) at 37 °C. Aliquots were taken at time intervals (0, 5, 15, 30 and
compound remaining, allowing the determination of the half-life for the compound.

PI5P4Kγ+ [4] = target: T1, PI5P4Kγ+ (Homo sapiens, UniProt Q8TBX8, D138G/D197E/E133P/E135D/E153T/E196G/G139A/N195G/S132L/S134N); test: biochemical
T1 sequence (Q8TBX8 with tags, fused parts or gaps INS131LPN/S132D/E133S/S134Q/E135A/G136R/D138G/G139A/E153T/N195G/E196G/D197E): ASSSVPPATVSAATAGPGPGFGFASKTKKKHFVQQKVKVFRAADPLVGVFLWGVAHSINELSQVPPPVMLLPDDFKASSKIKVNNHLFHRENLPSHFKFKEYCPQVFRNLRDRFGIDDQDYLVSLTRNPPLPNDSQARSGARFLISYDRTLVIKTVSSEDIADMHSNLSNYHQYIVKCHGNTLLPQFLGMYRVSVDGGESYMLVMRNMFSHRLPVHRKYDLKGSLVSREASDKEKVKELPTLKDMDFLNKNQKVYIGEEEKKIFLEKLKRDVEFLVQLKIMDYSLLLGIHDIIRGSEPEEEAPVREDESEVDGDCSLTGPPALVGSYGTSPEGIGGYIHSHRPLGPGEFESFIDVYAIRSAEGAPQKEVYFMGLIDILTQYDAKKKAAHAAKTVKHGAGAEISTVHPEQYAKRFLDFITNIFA

PI5P4Kα = target: T2, PI5P4Kα (Homo sapiens, UniProt P48426); conditions: for PI5P4Kα pIC50: ADP-Glo, footnote a: inconsistent replicates, value shown is upper limit
T2 sequence (P48426 1-406): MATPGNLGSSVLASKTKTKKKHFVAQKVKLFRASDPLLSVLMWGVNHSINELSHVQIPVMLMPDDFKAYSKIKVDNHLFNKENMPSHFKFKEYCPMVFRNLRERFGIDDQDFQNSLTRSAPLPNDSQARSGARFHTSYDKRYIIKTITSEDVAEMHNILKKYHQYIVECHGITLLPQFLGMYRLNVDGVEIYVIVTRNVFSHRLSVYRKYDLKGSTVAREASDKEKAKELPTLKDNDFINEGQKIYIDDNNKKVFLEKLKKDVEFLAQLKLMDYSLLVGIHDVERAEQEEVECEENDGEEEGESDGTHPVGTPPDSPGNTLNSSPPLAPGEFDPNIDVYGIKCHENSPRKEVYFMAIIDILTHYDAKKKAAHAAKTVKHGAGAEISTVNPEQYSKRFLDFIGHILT

[5] = ADP-Glo pIC50 PI5P4Kγ+, Table S1, two decimals, asterisk not explained
[6] = PI5P4Kγ+ pIC50, ADP-Glo, footnote a: inconsistent replicates, value shown is upper limit

efflux ratio at 60 min, 10 µM (MDR1 (P-gp)) | P app (A2B) (MDCK-MDR1 cells) | solubility at 2 h [1] | Fold-selectivity (α IC50/γ IC50) (PI5P4Kγ+ [2]) | half-life at 1 µM [3] | IC50 (PI5P4Kγ+ [4]; [5]) | IC50 (PI5P4Kγ+ [4]; [6]) | PI5P4Kα pIC50 (PI5P4Kα) | ADP-Glo pIC50 PI5P4Kα (PI5P4Kα; Table S1, two decimals, asterisk not explained) | SMILES
34.1 | 2.45 10^−6 cm s^−1 | 30 µM (≈ 11.9 µg/mL) | 79 | 8.2 min | 12.3 nM | 12.6 nM | 6.0 |  | Cc1ccncc1-c1cc2c(Nc3ccc(S(C)(=O)=O)cc3)ncnc2s1 [Compound 14]
3.7 | 14.2 10^−6 cm s^−1 | 10 µM (≈ 3.4 µg/mL) |  | 51.4 min |  | 50.1 nM | <6.2 |  | CS(=O)(=O)c1ccc(Nc2ncnc3scc(Cl)c23)cc1 [Compound 32]
0.91 | 9.95 10^−6 cm s^−1 | 3 µM (≈ 1.08 µg/mL) | 1.9 | 1.94 min | 52.5 nM | 50.1 nM | 7.0 | 7.01 | Cc1ncccc1-c1cc2ncnc(Nc3ccc(C4CC4)cc3)c2s1 [Compound 38]
